Data taken from patent publication US20230017045A1, “PYRIDINE AND PYRIMIDINE CARBOXYLATE HERBICIDES AND METHODS OF USE THEREOF” (Dow AgroSciences LLC, priority 2017, published 2023).
Like-named read-outs stand apart in the source and are kept apart here.

Tested on: test plant species
Experiment: Post-emergent herbicidal activity test (greenhouse, foliar spray, visual growth reduction)
Type: in vivo
Conditions: post-emergence, 336 h, 140 g ai/ha
In short: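 Visual scoring 14 d after treatment (0 = no injury, 100 = complete control) against nontreated and solvent-blank plants gave percent growth reduction. Foliar application used a track sprayer delivering 187 L/ha to seedlings at first or second true leaf stage, grown at 23–29 °C day, ~15 h photoperiod.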

[1] = ECHCG: barnyardgrass (Echinochloa crus-galli), 14 days after application, read-out: Visual Growth Reduction (%) 14 Days After Application, ECHCG
[2] = IPOHE: ivy-leaf morning glory (Ipomoea hederacea), 14 days after application, read-out: Visual Growth Reduction (%) 14 Days After Application, IPOHE
[3] = KCHSC: kochia (Bassia scoparia), 14 days after application, read-out: Visual Growth Reduction (%) 14 Days After Application, KCHSC
[4] = ORYSA: rice (Oryza sativa), 14 days after application, read-out: Visual Growth Reduction (%) 14 Days After Application, ORYSA
[5] = SETFA: giant foxtail (Setaria faberi), 14 days after application, read-out: Visual Growth Reduction (%) 14 Days After Application, SETFA
[6] = SORVU: grain sorghum (Sorghum vulgare), 14 days after application, read-out: Visual Growth Reduction (%) 14 Days After Application, SORVU
[7] = STEME: common chickweed (Stellaria media), 14 days after application, read-out: Visual Growth Reduction (%) 14 Days After Application, STEME
[8] = TRZAS: wheat, spring (Triticum aestivum), 14 days after application, read-out: Visual Growth Reduction (%) 14 Days After Application, TRZAS
[9] = blackgrass (Alopecurus myosuroides), 14 Days After Application, read-out: Visual Growth Reduction (%) ALOMY
[10] = crabgrass (Digitaria sanguinalis), 14 Days After Application, read-out: Visual Growth Reduction (%) DIGSA
[11] = lambsquarters (Chenopodium album), 14 Days After Application, read-out: Visual Growth Reduction (%) CHEAL
[12] = redroot pigweed (Amaranthus retroflexus), 14 Days After Application, read-out: Visual Growth Reduction (%) AMARE
[13] = wild oat (Avena fatua), 14 Days After Application, read-out: Visual Growth Reduction (%) AVEFA
[14] = yellow nutsedge (Cyperus esculentus), 14 Days After Application, read-out: Visual Growth Reduction (%) CYPES
[15] = canada thistle (Cirsium arvense), 14 Days After Application, read-out: Visual Growth Reduction (%) CIRAR
[16] = ALOMY: blackgrass (Alopecurus myosuroides), 14 days after application, read-out: Visual Growth Reduction (%) 14 Days After Application, ALOMY
[17] = AMARE: redroot pigweed (Amaranthus retroflexus), 14 days after application, read-out: Visual Growth Reduction (%) 14 Days After Application, AMARE
[18] = AVEFA: wild oat (Avena fatua), 14 days after application, read-out: Visual Growth Reduction (%) 14 Days After Application, AVEFA
[19] = CHEAL: lambsquarters (Chenopodium album), 14 days after application, read-out: Visual Growth Reduction (%) 14 Days After Application, CHEAL
[20] = CIRAR: canada thistle (Cirsium arvense), 14 days after application, read-out: Visual Growth Reduction (%) 14 Days After Application, CIRAR
[21] = CYPES: yellow nutsedge (Cyperus esculentus), 14 days after application, read-out: Visual Growth Reduction (%) 14 Days After Application, CYPES
[22] = DIGSA: crabgrass (Digitaria sanguinalis), 14 days after application, read-out: Visual Growth Reduction (%) 14 Days After Application, DIGSA

Structure (SMILES) | pest or weed control at 140 g/ha [1] [%] | pest or weed control at 140 g/ha [2] [%] | pest or weed control at 140 g/ha [3] [%] | pest or weed control at 140 g/ha [4] [%] | pest or weed control at 140 g/ha [5] [%] | pest or weed control at 140 g/ha [6] [%] | pest or weed control at 140 g/ha [7] [%] | pest or weed control at 140 g/ha [8] [%] | pest or weed control at 140 g/ha [9] [%] | pest or weed control at 140 g/ha [10] [%] | pest or weed control at 140 g/ha [11] [%] | pest or weed control at 140 g/ha [12] [%] | pest or weed control at 140 g/ha [13] [%] | pest or weed control at 140 g/ha [14] [%] | pest or weed control at 140 g/ha [15] [%] | pest or weed control at 140 g/ha [16] [%] | pest or weed control at 140 g/ha [17] [%] | pest or weed control at 140 g/ha [18] [%] | pest or weed control at 140 g/ha [19] [%] | pest or weed control at 140 g/ha [20] [%] | further results
COC(=O)c1nc(-c2ccc3ccccc3c2)c(F)cc1Cl [F340, Methyl 3-chloro-5-fluoro-6-(naphthalen-2-yl)picolinate] | 0 to 29 | 0 to 29 | 0 to 29 | 0 to 29 | 0 to 29 | 0 to 29 | 0 to 29 | 0 to 29 | 0 to 29 | 0 to 29 | 0 to 29 | 0 to 29 | 0 to 29 | 0 to 29 |  |  |  |  |  |  | 
COC(=O)c1nc(-c2cccc(C(F)(F)F)c2F)ccc1Cl [F289, Methyl 3-chloro-6-(2-fluoro-3-(trifluoromethyl)phenyl)picolinate] | 0 to 29 | 45 to 59 | 0 to 29 | 0 to 29 | 0 to 29 | 0 to 29 | 0 to 29 | 0 to 29 | 0 to 29 | 0 to 29 | 30 to 44 | 0 to 29 | 0 to 29 | 0 to 29 | 30 to 44 |  |  |  |  |  | 
COC(=O)c1nc(-c2ccc(C(F)(F)F)cc2C)c(F)cc1Cl [F170, Methyl 3-chloro-5-fluoro-6-(2-methyl-4-(trifluoromethyl)phenyl)picolinate] | 60 to 74 | 95 to 100 | 60 to 74 | 0 to 29 | 85 to 94 | 85 to 94 | 0 to 29 | 60 to 74 |  |  |  |  |  |  |  | 45 to 59 | 95 to 100 | 30 to 44 | 95 to 100 | 85 to 94 | pest or weed control at 140 g/ha [21]: 60 to 74%; pest or weed control at 140 g/ha [22]: 85 to 94%
COC(=O)c1cc(Cl)cc(-c2ccc(Cl)cc2Cl)n1 [F56, Methyl 4-chloro-6-(2,4-dichlorophenyl) picolinate] | 0 to 29 | 0 to 29 | 0 to 29 | 0 to 29 | 0 to 29 | 0 to 29 | 0 to 29 | 0 to 29 |  |  |  |  |  |  |  | 0 to 29 | 0 to 29 | 0 to 29 | 0 to 29 | 0 to 29 | pest or weed control at 140 g/ha [21]: 0 to 29%; pest or weed control at 140 g/ha [22]: 0 to 29%
CCCOC(=O)c1nc(-c2ccc(Cl)c(OC)c2F)ccc1Cl [F286, Propyl 3-chloro-6-(4-chloro-2-fluoro-3-methoxyphenyl) picolinate] | 0 to 29 | 60 to 74 | 60 to 74 | 0 to 29 | 0 to 29 | 0 to 29 | 0 to 29 | 0 to 29 | 0 to 29 | 0 to 29 | 75 to 84 | 0 to 29 | 0 to 29 | 0 to 29 | 60 to 74 |  |  |  |  |  | 
COC(=O)c1nc(-c2ccc3c(c2F)OC(F)(F)O3)c(F)cc1Cl [F229, Methyl 3-chloro-5-fluoro-6-(2,2,4-trifluorobenzo[d][1,3]dioxol-5-yl)picolinate] | 85 to 94 | 95 to 100 | 95 to 100 | 0 to 29 | 85 to 94 | 95 to 100 | 45 to 59 | 85 to 94 | 85 to 94 | 95 to 100 | 95 to 100 | 95 to 100 | 95 to 100 | 45 to 59 | 95 to 100 |  |  |  |  |  | 
COC(=O)c1nc(-c2ccc(N)cc2)c(F)cc1Cl [F247, Methyl 6-(4-aminophenyl)-3-chloro-5-fluoropicolinate] | 0 to 29 | 0 to 29 | 0 to 29 | 0 to 29 | 0 to 29 | 0 to 29 | 0 to 29 | 0 to 29 | 0 to 29 | 0 to 29 | 60 to 74 | 0 to 29 | 0 to 29 | 0 to 29 | 0 to 29 |  |  |  |  |  | 
O=C(OCc1cccc(C(F)(F)F)c1)c1nc(-c2ccc(C(F)(F)F)cc2Cl)ccc1Cl [F117, 3-(Trifluoromethyl) benzyl 3-chloro-6-(2-chloro-4-(trifluoromethyl)phenyl)picolinate] | 85 to 94 | 95 to 100 | 95 to 100 | 0 to 29 | 95 to 100 | 95 to 100 | 0 to 29 | 85 to 94 |  |  |  |  |  |  |  | 45 to 59 | 95 to 100 | 60 to 74 | 95 to 100 | 85 to 94 | pest or weed control at 140 g/ha [21]: 0 to 29%; pest or weed control at 140 g/ha [22]: 95 to 100%
COC(=O)c1nc(-c2ccc(C(F)(F)F)nc2)c(O)cc1Cl [F87, methyl 5-chloro-3-hydroxy-6′-(trifluoromethyl)-[2,3′-bipyridine]-6-carboxylate] | 0 to 29 | 0 to 29 | 0 to 29 | 0 to 29 | 0 to 29 | 0 to 29 | 0 to 29 | 0 to 29 |  |  |  |  |  |  |  | 0 to 29 | 0 to 29 | 0 to 29 | 0 to 29 | 0 to 29 | pest or weed control at 140 g/ha [21]: 0 to 29%; pest or weed control at 140 g/ha [22]: 0 to 29%
